Source: article PMC7502707, “Characterization and validation of a preventative therapy for hypertrophic cardiomyopathy in a murine model of the disease” (Proceedings of the National Academy of Sciences of the …, 2020)
Marks after values point to notes of the source that are not given here.

What was measured:
[1] = tested on: myocytes isolated from wt and cTnI-G203S mice; assay: Mitochondrial membrane potential (JC-1) in myocytes isolated from treated mice; assay type: in vivo, mouse
Method: (§5) Male mice expressing the human cTnI gene encoding the human disease-causing mutation cTnI-G203S were used for all studies. […] Male mice expressing the normal human cTnI gene were used as controls (wt). Ten-week-old mice were used for in vitro studies. For in vivo studies, 20- or 30-wk-old cTnI-G203S mice were treated with 10 μM AID-TAT or AID[S]-TAT via intraperitoneal injection, 3×/wk/5 wk. In vivo dose of AID-TAT or AID[S]-TAT (10 μM) was calculated based on blood volume, equating to ∼2 mg/kg total BW. Male animal models were used to eliminate potential differences in responses due to sex. Experiments were performed in a total of 21 wt (AID[S]-TAT), 6 wt (AID-TAT), 15 cTnI-G203S (AID[S]-TAT), and 26 cTnI-G203S (AID-TAT) mice. All animals were randomly assigned to treatment groups.
Fluorescence was measured on a Hamamatsu Orca ER digital camera attached to an inverted Nikon TE2000-U microscope. Fluorescent indicator 5,5′,6,6′-tetrachloro-1,1′,3,3′-tetraethylbenzimidazolylcarbocyanine iodide was used to measure Ψm in cardiac myocytes, as previously described (JC-1, Molecular Probes) ([61]). Autofluorescence was used to measure flavoprotein oxidation in cardiac myocytes based on previously described methods ([13], [29], [62]). Responses to drugs were reported as a percentage increase from the basal average.
Cells were incubated in calcium-free HBS (supplemented with 3 mM EGTA and 200 nM JC-1) for at least 3 h prior to measuring changes in m. Sodium cyanide (NaCN, 40 mM, mitochondrial electron transport blocker) was added at the end of each experiment to collapse m, confirming that the JC-1 signal was indicative of m.
Additionally, individual 580 nm and 535 nm wavelength signals were assessed in each experiment to determine whether the fluorescent indicator was accurately measuring m. Autofluorescence was used to measure flavoprotein oxidation in cardiac myocytes based on previously described methods (ex = 480 nm, em = 535 nm, interval = 1 min, exposure = 1.5 seconds) (4, 6, 7). Carbonyl cyanide-4-(trifluoromethoxy)phenylhydrazone (FCCP, 50 μM, mitochondrial electron transport chain uncoupler) was added at the end of each experiment to increase flavoprotein oxidation confirming signal was mitochondrial in origin. Ratiometric JC-1 or flavoprotein fluorescent signals were quantified by manually tracing myocytes and subtracting an equivalent background region
Responses to drugs were reported as a percentage increase from the basal average. […]

[2] = tested on: myocytes isolated from wt and cTnI-G203S mice; assay: MTT assay (formation of formazan) in myocytes isolated from treated mice; assay type: in vivo, mouse; conditions: for effect on metabolic activity (MTT): myocytes from wt or cTnI-G203S mice treated with AID(S)-TAT or AID-TAT, oligomycin 20 µM; for effect on BayK(−)-induced increase in metabolic activity (MTT): applied to myocytes from treated mice, nisoldipine 15 μM, Ru360 15 µM, dantrolene 20 µM
Method: The rate of reduction of MTT (Sigma-Aldrich) to formazan by the mitochondrial electron transport chain was measured in intact mouse cardiac myocytes, as previously described ([22], [25]). Each n represents number of replicates for each treatment group from cardiac myocytes isolated from a total of six wt [AID(S)-TAT], four cTnI-G203S [AID(S)-TAT], and three (AID-TAT) mice. Detailed methods are provided in SI Appendix. […]
The rate of reduction of 3-(4,5-Dimethyl-2-thiazolyl)-2,5-diphenyl-2H-tetrazolium bromide (MTT, Sigma-Aldrich, St. Louis, Missouri) to formazan by the mitochondrial electron transport chain was measured in intact mouse cardiac myocytes as previously described (1, 9). This reaction is dependent upon the presence of reduced nicotinamide adenine dinucleotide (NADH) and reduced nicotinamide adenine dinucleotide phosphate (NADPH), and intact mitochondrial electron transport (10). Cardiac myocytes were treated with relevant drugs in 96 well plates. MTT was added to each well to a final concentration of 0.5 mg/ml and the rate of the increase in absorbance immediately measured using a spectrophotometer at 37°C (PowerWave XS, 570 nm, reference wavelength of 620 nm). The rate of the increase in absorbance in response to treatments was expressed as a percentage of the rate of the increase prior to the addition of treatments. Each n represents number of replicates for each treatment group from cardiac myocytes isolated from a total of 6 wt (AID[S]- TAT), 4 cTnI-G203S (AID[S]-TAT), and 3 (AID-TAT) mice.
Immunoblot of ICa-L protein

[3] = tested on: mice expressing β-MHC mutations; conditions: precardiomyopathic mice expressing β-MHC mutations, compared to untreated mutants; cited from earlier work
From the text: Patients with HCM often present with early hypercontractility that stems from a high-degree of actin–myosin cross-linking ([36]). […] Recent studies have investigated the efficacy of a cardiac-specific small-molecule, Mavacamten (MYK-461), that inhibits β-MHC/actin binding and subsequently reduces sarcomere force output and contractility ([39], [40]), as a potential HCM therapeutic. Treatment of precardiomyopathic mice expressing β-MHC mutations with M ...

[4] = tested on: myocytes isolated from wt and cTnI-G203S mice; assay: Flavoprotein oxidation in myocytes isolated from treated mice; assay type: in vivo, mouse; conditions: applied to myocytes from treated wt or cTnI-G203S mice; nisoldipine 15 μM
Method: as §5
Fluorescence was measured on a Hamamatsu Orca ER digital camera attached to an inverted Nikon TE2000-U microscope. […]
Additionally, individual 580 nm and 535 nm wavelength signals were assessed in each experiment to determine whether the fluorescent indicator was accurately measuring m. […] Ratiometric JC-1 or flavoprotein fluorescent signals were quantified by manually tracing myocytes and subtracting an equivalent background region […]

cTnI-G203S mice = assay: Echocardiography of treated cTnI-G203S mice; assay type: in vivo, mouse; conditions: Pre-HCM treatment (from 20 wk), 25-wk-old cTnI-G203S mice, 10 μM i.p. 3×/wk/5 wk; mean, n = 7 AID(S)-TAT, n = 6 AID-TAT
Method: (§1) Male mice expressing the human cTnI gene encoding the human disease-causing mutation cTnI-G203S were used for all studies. The mice develop hallmark features of HCM by 21 wk ([7], [13]). Male mice expressing the normal human cTnI gene were used as controls (wt). Ten-week-old mice were used for in vitro studies. For in vivo studies, 20- or 30-wk-old cTnI-G203S mice were treated with 10 μM AID-TAT or AID[S]-TAT via intraperitoneal injection, 3×/wk/5 wk. In vivo dose of AID-TAT or AID[S]-TAT (10 μM) was calculated based on blood volume, equating to ∼2 mg/kg total BW. Male animal models were used to eliminate potential differences in responses due to sex. Experiments were performed in a total of 21 wt (AID[S]-TAT), 6 wt (AID-TAT), 15 cTnI-G203S (AID[S]-TAT), and 26 cTnI-G203S (AID-TAT) mice. All animals were randomly assigned to treatment groups. All animal studies were approved by the Animal Ethics Committee of The University of Western Australia in accordance with the 2013 Australian Code for the Care and Use of Animals for Scientific Purposes ([58]).
(§2) Echocardiographic measurement of left ventricular function were performed on mice under light methoxyflurane anesthesia using an i13L probe on a Vivid 7 Dimension ultrasound system (GE Healthcare), as previously described ([13], [29], [30]). Each n represents the average of quantitative measurements from wt or cTnI-G203S mice for each treatment group. Detailed methods are provided in SI Appendix.
(§3) Echocardiographic measurement of left ventricular function were performed on mice under light methoxyflurane anesthesia using an i13L probe on a Vivid 7 Dimension ultrasound system (GE Healthcare, Little Chalfont, United Kingdom) as previously described (4, 7). Echocardiographic measurements were taken on M-mode in triplicate from separate mice at a sweep speed of 200 mm/s. Each n represents the average of quantitative measurements from wt or cTnI-G203S mice for each treatment group. Measurements of left ventricular end diastolic diameter (LVEDD), left ventricular end systolic diameter (LVESD), fractional shortening (FS), left ventricular posterior wall in diastole (LVDPW), left ventricular posterior wall in systole (LVSPW), interventricular septum in diastole (IVSD), interventricular septum in systole (IVSS) and end diastolic diameter (EDD) were made. FS was calculated by the formula [(LVEDD-LVESD)/EDD] x 100. […]
(§4) (BioAssay Systems, Hayward CA). All assays were performed as per manufacturer’s instructions, using a spectrophotometer (PowerWave XS).

[5] = tested on: myocytes isolated from wt and cTnI-G203S mice; assay: Confocal imaging of F-actin (phalloidin) in myocytes from treated mice; assay type: in vivo, mouse; conditions: myocytes from cTnI-G203S mice treated 10 μM 3×/wk/5 wk, Pre HCM Rx
Method: Following completion of treatment regimens, myocytes were isolated and prepared for confocal imaging based on previously described methods ([29]). Detailed methods are provided in SI Appendix.
Echocardiographic measurement of left ventricular function were performed on mice under light methoxyflurane anesthesia using an i13L probe on a Vivid 7 Dimension ultrasound system (GE Healthcare, Little Chalfont, United Kingdom) as previously described (4, 7). Echocardiographic measurements were taken on M-mode in triplicate from separate mice at a sweep speed of 200 mm/s. Each n represents the average of quantitative measurements from wt or cTnI-G203S mice for each treatment group. […] FS was calculated by the formula [(LVEDD-LVESD)/EDD] x 100.
Cell size was determined as previously described (16). […]
To measure kidney toxicity, urea and creatinine concentration was assessed using QuantiChrom Urea and Creatinine assay kits respectively (BioAssay Systems, Hayward CA). To measure liver toxicity, alanine transaminase (ALT) and aspartate transaminase (AST) concentration was measured using Alanine Transaminase and Aspartate Transaminase assay kits respectively (BioAssay Systems, Hayward CA). […]

wt mice = assay: Echocardiography of treated wt mice; assay type: in vivo, mouse; conditions: 25-wk-old wt mice, 10 μM i.p. 3×/wk/5 wk from 20 wk; mean, n = 4
Method: as §1, §2, §3, §4

## COC(=O)C1=C(C)NC(C)=C([N+](=O)[O-])C1c1ccccc1C(F)(F)F (stereo not drawn) [BayK(+), reference compound]
[1]; myocytes from wt or cTnI-G203S mice treated with AID(S)-TAT or AID-TAT
  effect on Ψm: did not significantly alter Ψm
[2]
  effect on metabolic activity (MTT): did not significantly alter metabolic activity

## CC(C)n1c(=O)cc(N[C@@H](C)c2ccccc2)[nH]c1=O [MYK-461, Mavacamten]
[3]
  left ventricular wall thickness, FS, fibrosis and myocyte organization: reduce left ventricular wall thickness, FS, and fibrosis, and improve myocyte organization

## CC[C@H]1/C=C/C=C/C[C@@H](C)[C@H](O)[C@@](C)(O)C(=O)[C@@H](C)[C@H](O)[C@@H](C)C(=O)[C@@H](C)[C@H](O)[C@@H](C)/C=C/C(=O)O[C@@H]2[C@H](C)[C@H](CC1)O[C@]1(CC[C@H](C)[C@H](C[C@@H](C)O)O1)[C@H]2C [Oligomycin]
[2]
  effect on metabolic activity (MTT): significant decrease in metabolic activity

## O=C1CN(/N=C/c2ccc(-c3ccc([N+](=O)[O-])cc3)o2)C(O)=N1 [dantrolene]
[2]
  effect on BayK(−)-induced increase in metabolic activity (MTT): but not with ryanodine receptor blocker dantrolene

## COC(=O)C1=C(C)NC(C)=C(C(=O)OCC(C)C)C1c1ccccc1[N+](=O)[O-] (centres unmarked) [nisoldipine, reference compound]
[1]; applied to myocytes from treated wt or cTnI-G203S mice, nisoldipine 15 μM
  effect on BayK(−)-induced increase in Ψm: attenuated
[2]
  effect on BayK(−)-induced increase in metabolic activity (MTT): attenuated
[4]
  effect on BayK(−)-induced increase in flavoprotein oxidation: attenuated

## QKILGEWDLAQYTDQELE [AID(S)-TAT, reference compound]
cTnI-G203S mice
  FS: 47.39 ^* %
  HW:BW: 5.14 ^* mg/g
  IVSD: 0.85 ^* mm
  IVSS: 0.96 ^* mm
  LVDPW: 1.31 mm
  LVEDD: 3.08 ^* mm
  LVESD: 1.62 ^* mm
  LVSPW: 1.43 mm
[5]
  F-actin organization: F-actin disorganization
Wt mice
  FS: 35.08%
  HW:BW: 4.33 mg/g
  IVSD: 0.76 mm
  IVSS: 0.86 mm
  LVDPW: 1.26 mm
  LVEDD: 3.56 mm
  LVESD: 2.31 mm
  LVSPW: 1.42 mm

## Ru360
[2]
  effect on BayK(−)-induced increase in metabolic activity (MTT): attenuated
